Reference: patent US8211909B2, “Treatment of antibiotic-resistant bacteria infection” (TaiGen Biotechnology Co., Ltd., priority 2008, dated 2012)
Values after ≈ are worked out from the molar mass of the structure shown. Like-named read-outs stand apart in the source and are kept apart here.

Assays:
[1] = system: Methicillin-resistant Staphylococcus aureus (MRSA) isolates; experiment: MIC by broth microdilution (CLSI) against CAN-ICU MRSA isolates; format: cell-based; details: for MIC50 / MIC90 / MIC: Staphylococcus aureus; for MIC50: read-out: MIC50; for MIC90: read-out: MIC90
Source text: MRSA isolates (n=193) were obtained as part of the Canadian National Intensive Care Unit (CAN-ICU) Study. 19 medical centers from all regions of Canada with active ICUs participated in the CAN-ICU study included. They were requested to only obtain “clinically significant” specimens from patients with a presumed infectious disease. Surveillance swabs, eye, ear, nose and throat swabs were excluded. Anaerobic organisms and fungal organisms were also excluded.
From September 2005-June 2006 (inclusive), each center collected a maximum of 300 consecutive pathogens isolated from blood, urine, tissue/wound, and respiratory specimens (one pathogen per cultured site per patient) of ICU patients. These isolates were shipped to the reference laboratory (Health Sciences Centre, Winnipeg, Canada) on Amies charcoal swabs, subcultured in appropriate media, and stocked in skim milk at −80° C.
All isolates underwent mecA PCR, as well as molecular characterization (including PVL analysis and fingerprinting), as previously described, to assess whether they were community-associated or healthcare-associated (Christianson et al., J Clin Microbiol. 2007, 45 (6): 1904-11; Mulvey et al., J Clin. Microbiol. 2001, 39(10): 3481-5; Mulvey et al., Emerg Infect Dis. 2005,11(6): 844-50; Oliveira et al., Antimicrob Agents Chemother. 2002, 46(7): 2155-61). The isolates were also subtyped using pulsed-field gel electrophoresis (PFGE) following the Canadian standardized protocol as previously described (Mulvey et al., J Clin Microbiol. 2001, 39(10): 3481-5). Their PFGE fingerprints thus obtained were analyzed with BioNumerics v3.5 (Applied Maths St. Marten-Latem, Belgium) using a position tolerance of 1.0 and an optimization of 1.0. Strain relatedness was determined as previously described (Tenover et al., 1995). The fingerprints of the isolates were compared to the national MRSA fingerprint database and were grouped into one of 10 Canadian epidemic MRSA (CMRSA-1, CMRSA-2, etc) as previously described (Mulvey et al., Emerg Infect Dis. 2005,11(6):844-50).
Compound 1 and other antibiotics were tested for their inhibitory activity against the MRSA isolates using the broth microdilution guidelines as stipulated by the Clinical and Laboratory Standards Institute.

[2] = system: E. faecalis; experiment: CANWARD 2007 gram-positive cocci, CLSI broth microdilution; format: cell-based; design: unit not given beside the values; details: E. faecalis (81)
Experimental: (§1) From January-December 2007, 12 hospitals across Canada submitted isolates from patients attending hospital clinics, emergency rooms, medical and surgical wards, and intensive care units. 7881 isolates (CANWARD 2007) were collected including 3473 gram-positive cocci. Susceptibility testing for Compound 1 and Levofloxacin was performed using the Clinical and Laboratory Standards Institute broth microdilution.

[3] = system: H. pylori isolates; experiment: MIC by agar dilution against 200 H. pylori isolates (Taiwan); format: cell-based, Helicobacter pylori
Experimental: MICs were determined using the agar dilution methods recommended by the Clinical and Laboratory Standards Institute (CLSI-M100-S18).

[4] = system: S. pneumoniae; experiment: CANWARD 2007 gram-positive cocci, CLSI broth microdilution; format: cell-based, Streptococcus pneumoniae; design: MIC50 / MIC90: unit not given here
Experimental: as §1

[5] = system: Vancomycin-resistant E. faecium; experiment: MIC by agar dilution (CLSI-M100-S18), Taiwan Enterococci isolates; format: cell-based, Enterococcus faecium
Experimental: Compound 1 was tested for its inhibitory effect against multidrug-resistant Methicillin-resistant Staphylococcus aureus and Enterococci obtained by 10 medical centers in all regions of Taiwan. MICs were determined using the agar dilution methods recommended by the Clinical and Laboratory Standards Institute (CLSI-M100-S18).

[6] = MRSA / USA100, USA 100/800 (HA-MRSA)
[7] = MRSA / USA200, USA 200 (HA-MRSA)
[8] = MRSA / USA300, USA 300 (CA-MRSA)
[9] = MRSA / USA400, USA 400 (CA-MRSA)
[10] = MRSA / USA600, USA 600 (HA-MRSA)
[11] = Helicobacter pylori, 200 isolates of H. pylori
[12] = Enterococcus faecium, Vancomycin-resistant E. faecium (n = 78)

## COc1c(N2C[C@@H](C)C[C@H](N)C2)ccc2c(=O)c(C(=O)O)cn(C3CC3)c12 [Compound 1, (3S,5S)-7-[3-amino-5-methyl-piperidinyl]-1-cyclopropyl-1,4-dihydro-8-methoxy-4-oxo-3-quinolinecarboxylic acid]
[1]; CA-MRSA vs HA-MRSA strains
  activity against community-associated versus healthcare-associated MRSA strains (in words): more active against community-associated-MRSA strains than healthcare-associated-MRSA strains
[1]; MRSA isolates
  inhibition of MRSA (in words): effectively inhibited
[1]; [6]
  MIC50: 4 µg/mL (≈ 10.8 µM)
  MIC90: > 4 µg/mL
[1]; [7]
  MIC50: 2 µg/mL (≈ 5.38 µM)
  MIC90: 2 µg/mL (≈ 5.38 µM)
[1]; [8]
  MIC50: 0.5 µg/mL (≈ 1.35 µM)
  MIC90: 0.5 µg/mL (≈ 1.35 µM)
[1]; [9]
  MIC50: 0.06 µg/mL (≈ 0.162 µM)
  MIC90: 0.06 µg/mL (≈ 0.162 µM)
[1]; [10]
  MIC50: 2 µg/mL (≈ 5.38 µM)
  MIC90: 2 µg/mL (≈ 5.38 µM)
[1]; MRSA (n = 193)
  MIC50: 4 µg/mL (≈ 10.8 µM)
  MIC90: > 4 µg/mL
[1]; MRSA (n = 193), read-out: MIC Range Max
  MIC: > 4 µg/mL
[1]; MRSA (n = 193), read-out: MIC Range Min
  MIC: 0.03 µg/mL (≈ 0.0808 µM)
[2]
  MIC50: 0.12
  MIC90: 1
[3]; H. pylori isolates
  inhibition (in words): effectively inhibited
  inhibition compared with other quinolones (in words): more effective in inhibiting the isolates of H. pylori than Ciprofloxacin, Levofloxacin, and Moxifloxacin, and comparable to Gemifloxacin
[3]; [11]
  MIC50: 60 µg/mL (≈ 162 µM)
  MIC90: 250 µg/mL (≈ 673 µM)
[4]; PenI-SPN, PenR-SPN, CipR-SPN
  activity compared with Levofloxacin (in words): more active than Levofloxacin
[4]; SPN CipR (29)
  MIC50: 0.03
  MIC90: 0.12
[4]; SPN PenI (103)
  MIC50: 0.015/0.015
  MIC90: 0.015/0.015
[4]; SPN PenR (34)
  MIC50: 0.015
  MIC90: 0.03
[4]; SPN PenS (519)
  MIC50: 0.015/0.015
  MIC90: 0.015/0.015
[4]; SPN-All (656)
  MIC50: 0.015/0.015
  MIC90: 0.015/0.015
[5]; [12]
  MIC50: 4 µg/mL (≈ 10.8 µM)
  MIC90: 16 µg/mL (≈ 43.1 µM)
[5]; Vancomycin-resistant E. faecium (n = 78)
  MIC Range: 0.06 to 16 µg/mL
[5]; Vancomycin-resistant Enterococcus faecium
  inhibition (in words): effective
